Test: method code SF, from DOI: 10.1016/0378-5173(89)90136-1

Going from `CCNC(=O)CNC(=O)c1ccccc1` to `CCNC(=O)[C@@H](NC(=O)CNC(=O)c1ccccc1)C(C)C`, the logP rises from 0.58 to 1.05.

Going from `O=C(OC1C2C=CC1C=C2)c1ccccc1` (stereo not given) to `O=C(OCCO)c1ccccc1`, the logP falls from 3.03 to 1.12.

First: O=[N+]([O-])c1ccc(OCCN2CCOCC2)cc1
Second: COCCOC(=O)c1ccccc1
The logP of the first is lower: 1.54 for the first, 1.78 for the second.

First: O=C(OCCNC(=O)C(F)(F)F)c1ccccc1
Second: O=C(OCCOCCOCCO)c1ccccc1
The logP of the first is higher: 2.25 for the first, 1.09 for the second.

Compared with `O=C(NCc1ccccc1O)c1ccccc1`, `CCCCCCNC(=S)NC` is lower in logP: 2.55 for the first, 2.31 for the second.

Reference: the SangsterLogP compilation
